Reference: US12448518B2, “Phthalocyanine dye compounds, conjugates and methods of use thereof” (Rakuten Medical, Inc., priority 2020, dated 2025)

Tests used:
[1] = Singlet oxygen quantum yield, indirect method with chemical quencher (DPBF or ADMA); assay type: physicochemical
Text: Photogeneration quantum yields of singlet oxygen (ΦΔ) were obtained by an indirect method, using either diphenylisobenzofuran (DBPF) or anthracene-9,10-bis-methylmalonate (ADMA) as chemical quenchers in either N,N-dimethylformamide or aqueous media, respectively. Typically, a solution of the phthalocyanine and the quencher was irradiated with a red LED lamp (670 nm) at 5 mW/cm^2. The initial DPBF or ADMA concentrations were kept the same for both the reference and the test samples. The degradation of the DPBF band at 414 nm or ADMA at 401 nm was monitored in a Varian Cary® 50 UV-Vis spectrophotometer, every five seconds in the case of DPBF (up to 30 seconds) and every minute in the case of ADMA (up to five minutes). ZnPc (ΦΔ=0.67) and AlPcSmix (ΦΔ=0.42) were used as references in N,N-dimethylformamide or aqueous media, respectively.
The relative method shown by Eq. (1) was employed for calculations of the ΦΔ:
[formula] where ΦΔ and ΦΔref are the ^1O2 generation quantum yields for the sample and reference, respectively, m and mref are the DPBF or ADMA photobleaching rates in the presence of the phthalocyanine of the invention and the reference, respectively, and I and Iref are the rates of light absorption by the phthalocyanine derivative and reference, respectively. Concentrations of the test compound and reference were chosen such that their respective absorptions at the irradiation wavelength were the same.

[2] = Kinetic (aqueous) solubility in pH 7.4 DPBS, UV quantification; settings: for Solubility* (kinetic): pH 7.4 DPBS, 4 hours, room temperature (25° C.), from 10 mM DMSO stock
BxPC3 cells = test: Cell killing of free dye PIT, CellTox Green Cytotoxicity Assay; assay type: cell-based; settings: BxPC3, 0.00137-1 μg/mL, 690 nm laser 64 J/cm^2, 24 hours after light
Protocol: The PIT killing activity of free dyes were evaluated using the molecules synthesized as Example 12 and Example 13. BxPC3 cells (#CRL-1687, ATCC, Manassas VA) were plated, 5,000 cells per well, in RPMI-1640 media supplemented with 10% FBS and 1% Penicillin/Streptomycin (complete culture media) in a deep-well 96-well plate. Following overnight incubation at 37° C., the culture media were removed and the cells were incubated in 100 μL complete media with 1, 0.333, 0.111, 0.03704, 0.01235, 0.00412, 0.00137, or 0 μg/mL Example 12, Example 13, or IRDye 700DX carboxylate (control) for one hour at 4° C. […]
The effect of different treatment regimens on cell death was measured using the CellTox™ Green Cytotoxicity Assay (Cat No: G8742, Promega, Madison, WI). […] The CellTox™ Green fluorescence signal was measured at 24 hours after light treatment using a fluorescence plate reader. The cells were then lysed with diluted lysis solution (Cat No: G1821, Promega, Madison, WI), incubated at 37° C. for 30 minutes, and the CellTox™ Green fluorescence signal was measured again post-lysis. The percentages of dead cells were calculated by taking the ratio between background (1× CellTox™ Green in complete culture media without cells)-subtracted CellTox™ Green signal per well prior to and post lysis and multiplying the ratio by 100.

[3] = quencher ADMA, aqueous media, 670 nm LED 5 mW/cm^2, reference AlPcSmix

| Molecule | ΦΔ (singlet oxygen quantum yield) [1, 3] | Solubility* (kinetic) [2] | further results |
| --- | --- | --- | --- |
| C[Si](C)(CCC[N+](CCCCS(=O)(=O)O)(CCCCS(=O)(=O)O)CCCCS(=O)(=O)O)O[Si-2]123(O[Si](C)(C)CCC[N+](CCCCS(=O)(=O)O)(CCCCS(=O)(=O)O)CCOCCOCCOCCC(=O)O)n4c5c6ccccc6c4N=C4c6ccccc6C(=[N+]41)N=c1c4ccccc4c(n12)=NC1=[N+]3C(=N5)c2ccccc21.[Na+].[Na+].[Na+].[Na+] [Example 17, Sodium 2-((19-((dimethyl(3-(tris(4-sulfonatobutyl)ammonio)propyl)silyl)oxy)-19H-6,11-(azeno)-17,21-(azeno[3]episoindoloazeno)benzo[7,8][1,3,5,10]tetraaza[2]silacycloundecino[4,3-a:11,1-a′]diisoindol-19-yl)oxy)-2-methyl-6,6-bis(4-sulfonatobutyl)-9,12,15-trioxa-6-aza-2-silaoctadecan-6-ium-18-oate] | B (>0.5) |  |  |
| C[Si](C)(CCC[N+](CCCS(=O)(=O)O)(CCCS(=O)(=O)O)CCCS(=O)(=O)O)O[Si-2]123(O[Si](C)(C)CCC[N+](CCCS(=O)(=O)O)(CCCS(=O)(=O)O)CCOCCOCCOCCC(=O)O)n4c5c6ccccc6c4N=C4c6ccccc6C(=[N+]41)N=c1c4ccccc4c(n12)=NC1=[N+]3C(=N5)c2ccccc21.[Na+].[Na+].[Na+].[Na+] [Example 19, Sodium 2-((19-((dimethyl(3-(tris(3-sulfonatopropyl)ammonio)propyl)silyl)oxy)-19H-6,11-(azeno)-17,21-(azeno[3]episoindoloazeno)benzo[7,8][1,3,5,10]tetraaza[2]silacycloundecino[4,3-a:11,1-a′]diisoindol-19-yl)oxy)-2-methyl-6,6-bis(3-sulfonatopropyl)-9,12,15-trioxa-6-aza-2-silaoctadecan-6-ium-18-oate] | B (>0.5) |  | solubility kinetic at 4 h ([2]; 25 °C, pH 7.4, aqueous buffer, kinetic from dmso stock): > 100 µg/mL |
| C[Si](C)(CCC[N+](CCCCS(=O)(=O)[O-])(CCCCS(=O)(=O)[O-])CCCCS(=O)(=O)[O-])O[Si@@]1(O[Si](C)(C)CCC[N+](CCCCS(=O)(=O)[O-])(CCCCS(=O)(=O)[O-])CCOCCOCCC(=O)[O-])n2c3c4ccccc4c2/N=C2N=C(/N=c4/c5ccccc5/c(n41)=N/C1=NC(=N\3)/c3ccccc31)c1ccccc1\2.[Na+].[Na+].[Na+].[Na+] [Example 18, Sodium 2-((19-((dimethyl(3-(tris(4-sulfonatobutyl)ammonio)propyl)silyl)oxy)-19H-6,11-(azeno)-17,21-(azeno[3]episoindoloazeno)benzo[7,8][1,3,5,10]tetraaza[2]silacycloundecino[4,3-a:11,1-a′]diisoindol-19-yl)oxy)-2-methyl-6,6-bis(4-sulfonatobutyl)-9,12-dioxa-6-aza-2-silapentadecan-6-ium-15-oate] | B (>0.5) | C (>100 μg/mL) |  |
| C[Si](C)(CCCNC(=O)COCC(=O)O)O[Si]1(O[Si](C)(C)CCCNC(=O)NCCS(=O)(=O)O)n2c3c4ccccc4c2N=C2N=C(N=c4c5ccccc5c(n41)=NC1=NC(=N3)c3ccccc31)c1ccccc12.N (stereo not shown) [Example 7, Ammonium 2-(2-((3-(((19-((dimethyl(3-(3-(2-sulfonatoethyl)ureido)propyl)silyl)oxy)-19H-6,11-(azeno)-17,21-(azeno[1]episoindoloazeno)benzo[7,8][1,3,5,10]tetraaza[2]silacycloundecino[4,3-a:11,1-a′]diisoindol-19-yl)oxy)dimethylsilyl)propyl)amino)-2-oxoethoxy)acetate] |  | A (≤1 μg/mL) |  |
| COCCOCCOCC(=O)NCCC[Si](C)(C)O[Si-2]123(O[Si](C)(C)CCCNC(=O)CCCCC(=O)O)n4c5c6ccccc6c4N=C4c6ccccc6C(=[N+]41)N=c1c4ccccc4c(n12)=NC1=[N+]3C(=N5)c2ccccc21 [Example 1, 6-((3-(dimethyl((19-((15-methyl-10-oxo-2,5,8-trioxa-11-aza-15-silahexadecan-15-yl)oxy)-19H-6,11-(azeno)-17,21-(azeno[3]episoindoloazeno)benzo[7,8][1,3,5,10]tetraaza[2]silacycloundecino[4,3-a:11,1-a′]diisoindol-19-yl)oxy)silyl)propyl)amino)-6-oxohexanoic acid] |  |  | ΦΔ (singlet oxygen quantum yield) ([1]; quencher DPBF, N,N-dimethylformamide, 670 nm LED 5 mW/cm^2, reference ZnPc): A (≤0.5) |
| 4-((6-((λ5-azaneyl)oxy)-6-oxohexyl)(4-(((λ5-azaneyl)oxy)sulfonyl)butyl)(3-(((19-(((3-(bis(4-(((λ5-azaneyl)oxy)sulfonyl)butyl)(4-sulfonatobutyl)ammonio)propyl)dimethylsilyl)oxy)-19H-6,11-(azeno)-17,21-(azeno[3]episoindoloazeno)benzo[7,8][1,3,5,10]tetraaza[2]silacycloundecino[4,3-a:11,1-a′]diisoindol-19-yl)oxy)dimethylsilyl)propyl)ammonio)butane-1-sulfonate [Example 13] | B (>0.5) | C (>100 μg/mL) | cell death after illumination (free dye) (BxPC3 cells): dose-dependent cytotoxicity |
| C[Si](C)(CCCNC(=O)COCC(=O)O)O[Si]1(O[Si](C)(C)CCCNC(=O)NCC(S(=O)(=O)O)S(=O)(=O)O)n2c3c4ccccc4c2N=C2N=C(N=c4c5ccccc5c(n41)=NC1=NC(=N3)c3ccccc31)c1ccccc12.N (stereo not shown) [Example 8, Ammonium 2-(2-((3-(((19-(((3-(3-(2,2-disulfonatoethyl)ureido)propyl)dimethylsilyl)oxy)-19H-6,11-(azeno)-17,21-(azeno[1]episoindoloazeno)benzo[7,8][1,3,5,10]tetraaza[2]silacycloundecino[4,3-a:11,1-a′]diisoindol-19-yl)oxy)dimethylsilyl)propyl)amino)-2-oxoethoxy)acetate] |  | A (≤1 μg/mL) |  |
| Ammonium 3-((4-((3-(((19-(((3-(2-(carboxymethoxy)acetamido)propyl)dimethylsilyl)oxy)-19H-6,11-(azeno)-17,21-(azeno[3]episoindoloazeno)benzo[7,8][1,3,5,10]tetraaza[2]silacycloundecino[4,3-a:11,1-a′]diisoindol-19-yl)oxy)dimethylsilyl)propyl)amino)-4-oxobutyl)bis(3-sulfopropyl)ammonio)propane-1-sulfonae [Example 5] | B (>0.5) |  |  |
| C[Si](C)(CCCNC(=O)CCCN(CCCS(=O)(=O)O)CCCS(=O)(=O)O)O[Si]1(O[Si](C)(C)CCCNC(=O)COCC(=O)O)n2c3c4ccccc4c2N=C2N=C(N=c4c5ccccc5c(n41)=NC1=NC(=N3)c3ccccc31)c1ccccc12.N (stereo not shown) [Example 15, Ammonium 2-(2-((3-(((19-(((3-(4-(bis(3-sulfonatopropyl)ammonio)butanamido)propyl)dimethylsilyl)oxy)-19H-6,11-(azeno)-17,21-(azeno[1]episoindoloazeno)benzo[7,8][1,3,5,10]tetraaza[2]silacycloundecino[4,3-a:11,1-a′]diisoindol-19-yl)oxy)dimethylsilyl)propyl)amino)-2-oxoethoxy)acetate] |  | B (>1 μg/mL to ≤100 μg/mL) |  |
| 3-((6-((λ^5-azaneyl)oxy)-6-oxohexyl)(3-(((λ5-azaneyl)oxy)sulfonyl)propyl)(3-(((19-(((3-(bis(3-(((λ5-azaneyl)oxy)sulfonyl)propyl)(3-sulfonatopropyl)ammonio)propyl)dimethylsilyl)oxy)-19H-6,11-(azeno)-17,21-(azeno[3]episoindoloazeno)benzo[7,8][1,3,5,10]tetraaza[2]silacycloundecino[4,3-a:11,1-a′]diisoindol-19-yl)oxy)dimethylsilyl)propyl)ammonio)propane-1-sulfonate [Example 12] | B (>0.5) | C (>100 μg/mL) | cell death after illumination (free dye) (BxPC3 cells): dose-dependent cytotoxicity |
